Among the data in PubChem BioAssay (NCI) are TGI values, retold here.

Some test systems named below: MALME-3M melanoma; SF-539 CNS; NCI-H226 lung; EKVX NSCLC; HT29 colon; KM12 colon; A549 NSCLC; UACC-257 melanoma; RXF 393 renal; K-562 leukemia; SF-268 CNS; MCF7 breast; SK-MEL-2 melanoma; U251 CNS; UACC-62 melanoma; NCI-H23 lung; M14 melanoma; NCI-H460 lung; LOX IMVI melanoma; HCC-2998 colon.
Holding throughout (experiment): growth of human tumour cells (NCI), 48 h

Structures are written as SMILES.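 Tested at 5 concentrations; 48 h exposure; 96-well plates; endpoints linearly interpolated, else capped at highest concentration. Definition used: TGI = concentration required for complete inhibition of growth.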

As for `CC1CCCCNC1=S` (stereo unspecified), the TGI in the assay on MALME-3M melanoma, with SF-539 CNS, in the assay with NCI-H226 lung, in the assay with EKVX NSCLC, with HT29 colon and in the assay on KM12 colon was over 10 µM throughout. Besides, the TGI with A549 NSCLC, with UACC-257 melanoma, in the assay on RXF 393 renal, in the assay on K-562 leukemia, with SF-268 CNS and with MCF7 breast was over 10 µM each time. For the same compound, the TGI with SK-MEL-2 melanoma, in the assay on U251 CNS, in the assay with UACC-62 melanoma, in the assay with NCI-H23 lung, in the assay on M14 melanoma and in the assay on NCI-H460 lung was over 10 µM throughout. In the assay on LOX IMVI melanoma, this compound showed a TGI of over 10 µM.

Consider `COCCCNc1nc(N)c(C#N)c(C#N)c1C#N`, for which the TGI in the assay on MALME-3M melanoma, with SF-539 CNS, in the assay on NCI-H226 lung, in the assay with EKVX NSCLC, in the assay on HT29 colon and in the assay on KM12 colon was over 10 µM throughout. The TGI in the assay with A549 NSCLC, in the assay on RXF 393 renal, with K-562 leukemia, in the assay on SF-268 CNS, in the assay with MCF7 breast and with SK-MEL-2 melanoma was over 10 µM in each case. Also, the TGI with U251 CNS, in the assay on UACC-62 melanoma, in the assay with NCI-H23 lung, in the assay on M14 melanoma, in the assay with NCI-H460 lung and in the assay with LOX IMVI melanoma was over 10 µM each time. This compound also showed a TGI with HCC-2998 colon of over 10 µM.

As for `CC(=O)Nc1ccc(/C=C/c2ccc(NC(=O)Nc3ccc(/C=C/c4ccc(NC(C)=O)cc4S(=O)(=O)O)c(S(=O)(=O)O)c3)cc2S(=O)(=O)O)c(S(=O)(=O)O)c1`, the TGI with MALME-3M melanoma, in the assay on SF-539 CNS, in the assay with NCI-H226 lung, in the assay with EKVX NSCLC, in the assay on HT29 colon and in the assay on KM12 colon was over 100 µM throughout. For the same compound, the TGI with A549 NSCLC, in the assay with UACC-257 melanoma, with RXF 393 renal, with K-562 leukemia, in the assay with SF-268 CNS and in the assay with MCF7 breast was over 100 µM each time. Also, the TGI with SK-MEL-2 melanoma, in the assay on U251 CNS, in the assay on UACC-62 melanoma, with NCI-H23 lung, with NCI-H460 lung and in the assay on LOX IMVI melanoma was over 100 µM each time. Besides, the TGI in the assay with HCC-2998 colon is over 100 µM.

Take `CCOC(=O)Cn1c(=O)ccn(COCCO)c1=O`: the TGI in the assay on MALME-3M melanoma, in the assay with SF-539 CNS, in the assay on EKVX NSCLC, in the assay on HT29 colon, in the assay with KM12 colon and with A549 NSCLC was over 100 µM each time. The TGI in the assay on UACC-257 melanoma, in the assay on RXF 393 renal, with K-562 leukemia, with SF-268 CNS, in the assay on MCF7 breast and in the assay with SK-MEL-2 melanoma was over 100 µM each time. Moreover, the TGI in the assay on U251 CNS, in the assay with NCI-H23 lung, in the assay with M14 melanoma, in the assay on NCI-H460 lung, with LOX IMVI melanoma and in the assay on HCC-2998 colon was over 100 µM in each case.

In the case of `Clc1ccc(C[P+](c2ccccc2)(c2ccccc2)c2ccccc2)c(Cl)c1`, the TGI was determined as 15.7 µM in the assay on MALME-3M melanoma; 15.8 µM in the assay with SF-539 CNS; 7.77 µM in the assay on NCI-H226 lung; 31.4 µM in the assay on EKVX NSCLC; 10.4 µM in the assay on HT29 colon; 7.01 µM in the assay on KM12 colon. In addition, the TGI in the assay on A549 NSCLC worked out at 32.5 µM; with UACC-257 melanoma, 7.64 µM; with RXF 393 renal, 8.67 µM; with SF-268 CNS, 24 µM; in the assay on SK-MEL-2 melanoma, 7.71 µM; in the assay on U251 CNS, 18.8 µM. Further, the TGI in the assay with UACC-62 melanoma was found to be 12.6 µM; with NCI-H23 lung, 13 µM; in the assay with M14 melanoma, 14.3 µM; with NCI-H460 lung, 11.8 µM; in the assay on LOX IMVI melanoma, 12.9 µM; in the assay on HCC-2998 colon it was 15.1 µM.

As for `CCC(C)NC1=NCC(C)S1` (stereo unspecified), the TGI in the assay with MALME-3M melanoma, in the assay on SF-539 CNS, in the assay on NCI-H226 lung, in the assay on EKVX NSCLC, in the assay on HT29 colon and with KM12 colon was over 100 µM throughout. The TGI with A549 NSCLC, in the assay with UACC-257 melanoma, in the assay with RXF 393 renal, with K-562 leukemia, in the assay with SF-268 CNS and in the assay with MCF7 breast was over 100 µM throughout. Besides, the TGI in the assay on SK-MEL-2 melanoma, with U251 CNS, in the assay with UACC-62 melanoma, in the assay with NCI-H23 lung, in the assay on M14 melanoma and in the assay on NCI-H460 lung was over 100 µM throughout. Moreover, the TGI in the assay with LOX IMVI melanoma and in the assay with HCC-2998 colon was over 100 µM in each case.

For the compound `NNC(=O)c1c(SCc2ccccc2)nc2c3ccccc3ccn12`, the TGI with SF-539 CNS is over 100 µM; in the assay on NCI-H226 lung it was over 100 µM; in the assay on EKVX NSCLC, over 100 µM; in the assay on HT29 colon, 35.3 µM; with KM12 colon, over 100 µM; in the assay with A549 NSCLC, 70.3 µM. In addition, the TGI is over 100 µM in the assay with UACC-257 melanoma; 93.4 µM in the assay on RXF 393 renal; 57.9 µM with K-562 leukemia; over 100 µM with SF-268 CNS; over 100 µM in the assay on MCF7 breast; over 100 µM in the assay with SK-MEL-2 melanoma. In addition, the TGI with U251 CNS was over 100 µM; in the assay with UACC-62 melanoma, 29.6 µM; with NCI-H23 lung it was 52.6 µM; in the assay on M14 melanoma, 41.2 µM; in the assay with NCI-H460 lung it was 28 µM; in the assay on HCC-2998 colon it was over 100 µM.
